# Assay results as given in PMC7730513, “A Topical Formulation of Melatoninergic Compounds Exerts Strong Hypotensive and Neuroprotective Effects in a Rat Model of Hypertensive Glaucoma” (International Journal of Molecular Sciences, 2020).
# Several values for one entry are separate records, joined by “and”; a condition that tells them apart may be missing. Equal entries are not always repeated. Entries after “also recorded” stand apart in the source; their conditions may differ. Where two headings read alike, the source gives them in different places.
# What was measured:
# [1] = Pharmacokinetics study: eye tissue distribution of melatonin/agomelatine eye drops by HPLC/MS/MS in healthy rats; conditions: for concentration at 2 h: rat, topical, 40 µg
# Description: (§5) Two hours after the last treatment, animals were euthanized with an overdose of pentobarbital and the eye globes removed. One eye of each rat was taken whole, while the fellow eyes were dissected, and retinas and vitreous humors were separately taken. Whole eyes were cut in small pieces and separately homogenized with an Ultra-turrax homogenizer for 3 min on ice at 4 °C in 0.25 mL of methanol, then subjected to 1 min of ultrasonication in a cold-water bath. The five retinas were pooled together and extracted as before in 0.1 mL of methanol. Each vitreous body was diluted with 0.05 mL of methanol and sonicated. All samples were finally centrifuged 10 min at 10,000× g rpm and the supernatants were saved frozen for further analysis. […] The operational MS parameters of the instrument were: gas temperature, 350 °C; gas flow, 5 L/min; nebulizer, 20 psi; capillary, 3500 V; collision energy, 15 V; dwell-time, 200 msec; fragmentor, 135 V.
# MT2 melatonin receptor = conditions: read-out: Affinity of MT2 melatonin receptor; cited from earlier work
# MT1 melatonin receptor = conditions: read-out: Affinity of MT1 melatonin receptor; cited from earlier work
# active caspase 3 = experiment: Western blot of retinal homogenates, active caspase 3; type: in vivo, rat; conditions: retina, MCE model, versus respective vehicle
# Description: (§1) The model was originally developed in rabbits and then applied to rodents. It is based on the injection of 2% MCE in sterile saline in the anterior chamber of the eye. The MCE used in the present study (M0512; Sigma Aldrich, St. Louis, MO, USA) is pure and has a molecular weight of about 88,000 and, when dissolved in aqueous solution at 2% gives a solution with a viscosity ranging from 3500 to 5600 cps. Rats, anesthetized with an intraperitoneal injection of pentobarbital (30 mg/kg), were injected into the anterior chamber with 15 µL of MCE in both eyes using a 18G needle in agreement with published protocols. […] The eyes of each rat were evaluated for unintended adverse effects of intraocular injection -e.g., cataract, corneal opacity or edema that could impact electrophysiological parameters and/or tonometer accuracy. […]
# (§2) After animal euthanization with an overdose of pentobarbital, retinas were isolated and stored at −80 °C. […] Protein concentration was measured using the Micro BCA Protein Assay (Thermo Fisher Scientific, Waltham, MA, USA). […] Blots were blocked for 1 h with 5% skim milk and incubated overnight at 4 °C with the primary antibodies listed in Supplementary Table S1 that are routinely used to detect the inflammatory and the apoptotic markers as determined in the present study. β-actin was used as loading control. […]
# GFAP = experiment: Western blot of retinal homogenates, GFAP; type: in vivo, rat; conditions: retina, MCE model, versus respective vehicle
# Description: as §1, §2
# Brn3a-positive RGCs = experiment: RGC density by Brn3a immunohistochemistry in retinal flat mounts; type: in vivo, rat; conditions: for RGC loss spared: MCE reduced RGC density by about 29%; for RGC density (% of control), Central: central retina; for RGC density (% of control), Central / RGC density (% of control), Middle / RGC density (% of control), Peripheral: MCE + treatment, mean ± SEM, n = 6; for RGC density (% of control), Middle: middle retina; for RGC density (% of control), Peripheral: peripheral retina
# Description: (§3) The model was originally developed in rabbits and then applied to rodents. It is based on the injection of 2% MCE in sterile saline in the anterior chamber of the eye. The MCE used in the present study (M0512; Sigma Aldrich, St. Louis, MO, USA) is pure and has a molecular weight of about 88,000 and, when dissolved in aqueous solution at 2% gives a solution with a viscosity ranging from 3500 to 5600 cps. Rats, anesthetized with an intraperitoneal injection of pentobarbital (30 mg/kg), were injected into the anterior chamber with 15 µL of MCE in both eyes using a 18G needle in agreement with published protocols. […] The eyes of each rat were evaluated for unintended adverse effects of intraocular injection -e.g., cataract, corneal opacity or edema that could impact electrophysiological parameters and/or tonometer accuracy.
# (§4) Eye drops (10 µL) were administered to both eyes two times a day over two weeks after MCE injection. Eye drops were instilled at 10 a.m. and at 6 p.m.
# After animal euthanization with an overdose of pentobarbital, six retinas from independent rats for each experimental group were explanted. Retinas were then fixed for 90 min at 4 °C in 4% paraformaldehyde in 0.1 M phosphate buffer (PB) and stored at 4 °C in 25% sucrose in 0.1 M PB. Retinal ganglion cells were labeled incubating the retinas for 24 h at 4 °C with a mouse monoclonal antibody against Brn3a (1:100 in PB containing 5% BSA and 2% TritonX-100; sc-8429; Santa Cruz Biotechnology, Santa Cruz, CA, USA). Retina whole mounts were then washed with PB and incubated overnight at 4 °C in an AlexaFluor555-conjugated secondary antibody (1:100; A-32727; Molecular Probes, Eugene, OR, USA). Finally, retinas were washed with PB, mounted on glass slides with the photoreceptor side facing down and viewed with a fluorescence microscope (Ni-E; Nikon-Europe, Amsterdam, The Netherlands). Images of the entire retina were acquired by a DS-Fi1c camera (Nikon-Europe) and Brn3a-positive cells were counted using the NIS-Elements software (Nikon-Europe). […] In total, 12 images were taken from each retina. The density of Brn3a-positive cells (number of cells per mm^2) was compared between the different experimental groups. Quantification was performed in a masked manner.
# IL-1β = experiment: Western blot of retinal homogenates, IL-1β; type: in vivo, rat; conditions: retina, MCE model, versus respective vehicle
# Description: as §1, §2
# TNF-α = experiment: Western blot of retinal homogenates, TNF-α; type: in vivo, rat; conditions: retina, MCE model, versus respective vehicle
# Description: as §1, §2
# [2] = test system: MCE rat model of hypertensive glaucoma; experiment: Pattern ERG (PERG); type: in vivo; conditions: two weeks after MCE
# Description: as §3, §4
# PERG responses, mainly generated by RGC activity, can be useful for assessing RGC function in conditions such as glaucoma and ischemic optic neuropathy. PERG responses were evoked using an alternating pattern of black and white horizontal bars delivered on a stimulus display unit from a commercially available PERG system (SB700 Advanced, Nikon-Europe, Amsterdam, The Netherlands). Stimuli consisted in 0.05 cycles/deg black and white bars reversing at 1 Hz presented at 98% contrast. The pattern stimuli were administered through a light emitting diode display with a mean luminance of 50 cd/m^2 aligned at about 20 cm from the corneal surface. A total of 200 signals were averaged. Each animal was placed at the same fixed position in front of the monitor to prevent recording variability due to animal placement. PERG recordings were sequentially conducted in both eyes. The PERG response was evaluated by measuring the amplitude of the N35-P50 wave (from the trough of the negative peak N35, a small deflection near 35 ms after the stimulus, to the peak of the positive peak P50, a deflection near 50 ms after the stimulus) and the P50-N95 wave (from the peak of the positive peak P50 to the trough of the negative peak N95, a deflection near 95 ms after the stimulus). The implicit time was determined by measuring the time from the onset of the stimulus to the P50 and N95 peaks.
# [3] = brimonidine eye drops in monkeys; cited from earlier work
# IL-4 = experiment: Western blot of retinal homogenates, IL-4; type: in vivo, rat; conditions: retina, MCE model, versus respective vehicle
# Description: as §1, §2
# [4] = after administration of 0.1% eye drops; cited from earlier work
# IL-10 = experiment: Western blot of retinal homogenates, IL-10; type: in vivo, rat; conditions: retina, MCE model, versus respective vehicle
# Description: as §1, §2
# Iba1 = experiment: Western blot of retinal homogenates, Iba1; type: in vivo, rat; conditions: retina, MCE model, versus respective vehicle
# Description: as §1, §2
# [5] = test system: MCE rat model of hypertensive glaucoma; experiment: Photopic full-field ERG, photopic negative response (PhNR); type: in vivo; conditions: two weeks after MCE; versus respective vehicle
# Description: as §3, §4
# IL-6 = experiment: Western blot of retinal homogenates, IL-6; type: in vivo, rat; conditions: retina, MCE model, versus respective vehicle
# Description: as §1, §2
# Bax/Bcl-2 = experiment: Western blot of retinal homogenates, Bax/Bcl-2 ratio; type: in vivo, rat; conditions: retina, MCE model, versus respective vehicle
# Description: as §1, §2
# in vivo = conditions: rat
# Description: as §5
# [6] = Sprague-Dawley, rat, in vivo, 2 h
# Description: as §5
# [7] = test system: MCE rat model of hypertensive glaucoma; experiment: IOP measurement by tonometry in the MCE model; type: in vivo; conditions: after two weeks of eye drops twice a day; in respect to the respective vehicle (vehicle 1 saline for timolol, brimonidine; vehicle 2 nanomicellar for melatonin/agomelatine)
# Description: as §3, §4
# [8] = of 120 µg given in 3 administrations of 40 µg
smiles,measurement,setting,value
COc1ccc2cccc(CCNC(C)=O)c2c1 [agomelatine],concentration at 2 h,"[1]; Sprague-Dawley, retina, Concentration in the retina (molar), converted from ng/mg",~378 nM
same,concentration at 2 h,"[1]; Sprague-Dawley, retina, Concentration, pool of retinas, pool of retinas of animals 1 to 5, 3 x 40 µg eye drops, 2 h after last instillation",96 ng/g
same,concentration at 2 h,"[1]; Sprague-Dawley, vitreous humor, Concentration, vitreous, individual animals 1-5, 3 x 40 µg eye drops, 2 h after last instillation",71 ng/g
same,concentration at 2 h,"[1]; Sprague-Dawley, vitreous humor, Concentration, vitreous, mean, mean of 5 animals, 3 x 40 µg eye drops, 2 h after last instillation",80 ng/g
same,concentration at 2 h,"[1]; Sprague-Dawley, whole eye, Concentration, whole eye, individual animals 1-5, 3 x 40 µg as 10 µL eye drops 2 h apart, sampled 2 h after last instillation",10900 ng/g
same,concentration at 2 h,"[1]; Sprague-Dawley, whole eye, Concentration, whole eye, mean, mean of 5 animals, 3 x 40 µg eye drops, 2 h after last instillation",9940 ng/g
same,Content in the whole eye relative to melatonin,[1]; agomelatine 9.94 ng/mg vs melatonin 7.44 ng/mg,1.33 times
same,"Concentration, whole eye","[1]; individual animals 1-5, 3 x 40 µg as 10 µL eye drops 2 h apart, sampled 2 h after last instillation",10.64 ng/mg and 11.35 ng/mg and 9.16 ng/mg and 7.67 ng/mg
same,"Concentration, vitreous","[1]; individual animals 1-5, 3 x 40 µg eye drops, 2 h after last instillation",0.073 ng/mg and 0.099 ng/mg and 0.077 ng/mg and 0.084 ng/mg
same,"Concentration, vitreous, mean","[1]; mean of 5 animals, 3 x 40 µg eye drops, 2 h after last instillation",0.081 ng/mg
same,Amount retained in the whole eye,[1]; [8],1.59 µg
same,Fraction of the 120 µg given retained in the whole eye,[1]; [8],~1.3%
same,concentration at 2 h,"[1]; retina, Concentration in the retina (molar), converted from ng/mg",378 nM
same,concentration at 2 h,"[1]; vitreous humor, Concentration in the vitreous humor (molar), converted from ng/mg",332 nM
same,Retina concentration relative to melatonin,[1]; retina,twenty-two times higher
same,Ki,MT2 melatonin receptor,0.12 nM
same,Ki,MT1 melatonin receptor,0.01 nM
Brc1c(NC2=NCCN2)ccc2nccnc12 [brimonidine],Decrease of the levels of the active form of caspase 3,active caspase 3,~2.2 fold
same,Reduction of GFAP levels,GFAP,about 1.6 fold
same,RGC loss spared,Brn3a-positive RGCs,spared almost completely; also recorded: almost completely prevented
same,"RGC density (% of control), Central",Brn3a-positive RGCs,88 ± 3 % of control
same,"RGC density (% of control), Middle",Brn3a-positive RGCs,91 ± 6 % of control
same,"RGC density (% of control), Peripheral",Brn3a-positive RGCs,91 ± 3 % of control
same,Reduction of IL-1β levels,IL-1β,did not affect
same,Reduction of TNF-α levels,TNF-α,did not affect
same,"Amplitude of the N35-P50 and P50-N95 waves, effect versus vehicle",[2],partly prevented the reduction
same,MCE-induced increase in the implicit time of the P50 and N95 components,[2],prevented
same,"Amplitude of the P50-N95 wave, lower than in controls",[2]; MCE alone about 55% reduced,~25%
same,"Amplitude of the N35-P50 wave, lower than in controls",[2]; MCE alone about 60% reduced,about 24%
same,Concentration values after eye drops,[3],around 80 nM
same,Increase of IL-4 levels,IL-4,did not affect
same,Vitreous concentration,[4],2 nM
same,Increase of IL-10 levels,IL-10,did not affect
same,Reduction of Iba1 levels,Iba1,not affecting
same,PhNR amplitude,[5],almost restoring the PhNR amplitude to control levels
same,Reduction of IL-6 levels,IL-6,did not affect
same,Reduction of the Bax/Bcl-2 ratio,Bax/Bcl-2,~9.7 fold
COc1ccc2[nH]cc(CCNC(C)=O)c2c1 [melatonin],concentration at 2 h,"in vivo; Sprague-Dawley, Concentration in the retina (molar)",~17 nM
same,concentration at 2 h,in vivo; Concentration in the retina (molar),17 nM
same,concentration at 2 h,in vivo; Concentration in the vitreous humor (molar),43 nM
same,Fraction of the 120 µg given retained in the whole eye,[6],roughly 1%
same,Ki,MT2 melatonin receptor,0.38 nM
CC(C)(C)NC[C@H](O)COc1nsnc1N1CCOCC1 [timolol],Decrease of the levels of the active form of caspase 3,active caspase 3,about 1.3 fold
same,Reduction of GFAP levels,GFAP,did not affect
same,RGC loss spared,Brn3a-positive RGCs,about 11%
same,"RGC density (% of control), Central",Brn3a-positive RGCs,"78 ± 4 *^,§ % of control"
same,"RGC density (% of control), Middle",Brn3a-positive RGCs,"83 ± 3 *^,§ % of control"
same,"RGC density (% of control), Peripheral",Brn3a-positive RGCs,"81 ± 4 *^,§ % of control"
same,Reduction of IL-1β levels,IL-1β,did not affect
same,Reduction of TNF-α levels,TNF-α,did not affect
same,"Amplitude of the N35-P50 and P50-N95 waves, effect versus vehicle",[2],did not differ
same,MCE-induced increase in the implicit time of the P50 and N95 components,[2],did not affect
same,Increase of IL-4 levels,IL-4,did not affect
same,Reduction of the MCE-induced increase in IOP,[7],about 32%
same,Increase of IL-10 levels,IL-10,did not affect
same,Reduction of Iba1 levels,Iba1,did not affect
same,PhNR amplitude,[5],did not differ
same,Reduction of IL-6 levels,IL-6,did not affect
same,Reduction of the Bax/Bcl-2 ratio,Bax/Bcl-2,about 1.6 fold
